Measurements as given in patent US20250090475A1, “DRUG-LOADED AMINO ACID BASED POLY (ESTERUREA)FILMS FOR CONTROLLED LOCAL RELEASE OF NON-OPIOID ANALGESIC COMPOUNDS” (MERK SHARP & DOHME CORP., priority 2020, published 2025).

Experiments:
[1] = Etoricoxib solubility in the release media; format: physicochemical; details: used in Higuchi equation
Procedure: D=(slope/A)^2/2CCs • Where the slope is the amount of drug released at time t divided by the square root of time, A is the area of the film, C is the initial drug concentration (or the drug-load in the polymer), CS is the drug solubility in the media (0.5 mg/mL) and D is the diffusivity constant. This constant not only indicates the mobility of the drug from the film into the media, but also can be used to calculate for the time of total release using the maximum amount of drug within the film (Table 11).

[2] = In vitro etoricoxib release from PEU films, USP Apparatus 7, PBS; format: physicochemical; details: about 6 mg in USP 7, PBS, n=3
[3] = 90 mg etoricoxib dosed patients in comparison to diclofenac at 150 mg; oral; cited from earlier work

Cc1ccc(-c2ncc(Cl)cc2-c2ccc(S(C)(=O)=O)cc2)cn1 [etoricoxib]
drug solubility in the media (CS) [1]: 500 µg/mL
time at which free drug release reached a plateau [2]: ~1 days
gastrointestinal events [3]: decrease in gastrointestinal events
risk of edema and hypertension [3]: dose-dependent increased risk
